In one data set the target is human BACE1 (Homo sapiens, UniProt P56817). The data set is described as follows: Fluorescent kinetic assay, BACE-1 binding affinity (peptide substrate WABC-6 cleavage). As to conditions: 10 nM enzyme, 25 μM substrate WABC-6, Na-Acetate pH 4.5, room temperature. It counts as biochemical. As to the method: Evaluation of BACE-1 Binding Affinity of Test Compounds
Fluorescent Kinetic Assay
Final Assay Conditions: 10 nM human BACE1 (or 10 nM Murine BACE1), 25 μM substrate (WABC-6, MW 1549.6, from AnaSpec), Buffer: 50 mM Na-Acetate, pH 4.5, 0.05% CHAPS, 25% PBS, room temperature. Na-Acetate was from Aldrich, Cat. #24, 124-5, CHAPS was from Research Organics, Cat. #1304C 1X, PBS was from Mediatech (Cellgro), Cat#21-031-CV, peptide substrate Abz[…]pa was from AnaSpec, Peptide Name: WABC-6 Determination of stock substrate (Abz[…]pa) concentration: ˜25 mM stock solution is made in DMSO using the peptide weight and MW, and diluted to ˜25 μM (1:1000) in 1×PBS. Concentration is determined by absorbance at 354 nm using an extinction coefficient ε of 18172 M^−1cm^−1, the concentration of stock substrate is corrected, and the substrate stock stored in small aliquots in −80° C. […] Determination of Stock Enzyme Concentration: the stock concentration of each enzyme is determined by absorbance at 280 nm using ε of 64150 M^−1cm^−1 for hBACE1 and MuBACE1 in 6 M Guanidinium Hydrochloride (from Research Organics, Cat. # 5134G-2), pH ˜6. The extinction coefficient ε^280 nm for each enzyme was calculated based on known amino acid composition and published extinction coefficients for Trp ([…]) and Tyr ([…]) residues (Anal. Biochem. 182, 319-326). Dilution and mixing steps: total reaction volume: 100 μL
2× inhibitor dilutions in buffer A (66.7 mM Na-Acetate, pH 4.5, 0.0667% CHAPS) were prepared,
4× enzyme dilution in buffer A (66.7 mM Na-Acetate, pH 4.5, 0.0667% CHAPS) were prepared,
100 μM substrate dilution in 1× PBS was prepared, and
50 μL 2× Inhibitor, 25 μL 100 μM substrate are added to each well of 96-well plate (from DYNEX Technologies, VWR #: 11311-046), immediately followed by 25 μL 4× enzyme (added to the inhibitor and substrate mix), and the fluorescence readings are initiated.
Fluorescence Readings: Readings at λex 320 nm and λem 420 nm are taken every 40 sec for 30 min at room temperature and the linear slope for substrate cleavage rate (vi) determined.
Calculation of % Inhibition: % Inhibition=100*(1−vi/v0) • vi: substrate cleavage rate in the presence of inhibitor • v0: substrate cleavage rate in the absence of inhibitor • IC50 Determination: % Inhibition=((B*IC50^n)+(100*I0^n))/(IC50^n+I0^n) (Model #39 from LSW Tool Bar in Excel where B is the % inhibition from the enzyme control, which should be close to 0.) % Inhibition is plotted vs. Inhibitor Concentration (I0) and the data fit to the above equation to obtain IC50 value and Hill number (n) for each compound.

human BACE1, sequence (P56817 46-501): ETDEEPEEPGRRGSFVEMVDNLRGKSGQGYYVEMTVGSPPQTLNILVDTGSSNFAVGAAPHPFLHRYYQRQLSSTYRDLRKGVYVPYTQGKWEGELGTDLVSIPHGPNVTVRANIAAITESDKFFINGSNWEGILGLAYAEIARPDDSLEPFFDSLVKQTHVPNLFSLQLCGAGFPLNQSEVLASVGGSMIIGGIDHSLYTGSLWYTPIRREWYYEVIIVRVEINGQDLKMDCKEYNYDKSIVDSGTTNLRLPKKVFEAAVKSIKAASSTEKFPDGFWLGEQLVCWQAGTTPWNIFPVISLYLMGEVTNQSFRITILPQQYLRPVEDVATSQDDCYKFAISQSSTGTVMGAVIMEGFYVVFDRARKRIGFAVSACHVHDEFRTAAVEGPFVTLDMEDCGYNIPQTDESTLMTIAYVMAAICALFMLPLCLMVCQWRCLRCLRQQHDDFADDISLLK

In general, IC50 refers to the midpoint of a concentration-inhibition curve. Read a low IC50 as higher potency. “2′-amino-7-(6-fluoropyridin-3-yl)-2-methoxy-1,1′-dimethyl-10,11-dihydrospiro[dibenzo[a,d][7]annulene-5,4′-imidazol]-5′(1′H)-one [Example 6]” displayed an IC50 on human BACE1 of 0.108 µM.

For orientation: melting point means the temperature of the solid-liquid transition. `COc1ccc2c(c1C)CCc1ccc(-c3cccnc3)cc1C21N=C(N)N(C)C1=O` (stereo not shown) [Example 3, 2′-Amino-2-methoxy-1,1′-dimethyl-7-pyridin-3-yl-10,11-dihydrospiro[dibenzo[a,d][7]annulene-5,4′-imidazol]-5′(1′H)-one] registered a melting point of 235 to 239 °C. On human BACE1, this molecule had an IC50 of 0.077 µM.

Molecule `COc1ccc2c(c1C)CCc1ccc(-c3cccnc3F)cc1C21N=C(N)N(C)C1=O` (stereo not shown) [Example 4, 2′-amino-7-(2-fluoropyridin-3-yl)-2-methoxy-1,1′-dimethyl-10,11-dihydrospiro[dibenzo[a,d][7]annulene-5,4′-imidazol]-5′(1′H)-one] registered a melting point of 153 to 155 °C. In addition, the IC50 at human BACE1 stood at 0.063 µM.

Turning to `COc1ccc2c(c1C)CCc1ccc(-c3cc(F)ccc3F)cc1C21N=C(N)N(C)C1=O` (stereo not shown) [Example 7, 2′-amino-7-(2,5-difluorophenyl)-2-methoxy-1,1′-dimethyl-10,11-dihydrospiro[dibenzo[a,d][7]annulene-5,4′-imidazol]-5′(1′H)-one], the melting point is 155 to 195 °C. At human BACE1, this molecule showed an IC50 of 0.25 µM.

The molecule `COc1ccc2c(c1C)CCc1ccc(-c3cccc(C#N)c3)cc1C21N=C(N)N(C)C1=O` (stereo not shown) [Example 8, 3-(2′-amino-8-methoxy-1′,9-dimethyl-5′-oxo-1′,5′, 10,11-tetrahydrospiro[dibenzo[a,d][7]annulene-5,4′-imidazol]-3-yl)benzonitrile] registered a melting point of 269 to 280 °C. The molecule also returned a half-maximal inhibitory concentration (IC50) on human BACE1 of 0.235 µM.

`COc1cccc(-c2ccc3c(c2)C2(N=C(N)N(C)C2=O)c2ccc(OC)c(C)c2CC3)c1` (stereo not shown) [Example 9, 2′-amino-2-methoxy-7-(3-methoxyphenyl)-1,1′-dimethyl-10,11-dihydrospiro[dibenzo[a,d][7]annulene-5,4′-imidazol]-5′(1′H)-one] had an IC50 at human BACE1 of 0.138 µM. This lies in the sub-micromolar range.

`COc1ccc2c(c1C)CCc1ccc(-c3cc(F)cc(F)c3)cc1C21N=C(N)N(C)C1=O` (stereo not shown) [Example 10, 2′-amino-7-(3,5-difluorophenyl)-2-methoxy-1,1′-dimethyl-10,11-dihydrospiro[dibenzo[a,d][7]annulene-5,4′-imidazol]-5′(1′H)-one] came in with a melting point of 245 to 249 °C. For the same molecule, the 50% inhibitory concentration (IC50) at human BACE1 was 0.376 µM.

Take `COc1ccc2c(c1)CCc1ccc(-c3ccccc3)cc1C21N=C(N)N(C)C1=O` (stereo not shown) [Example 12, 2′-Amino-2-methoxy-1′-methyl-7-phenyl-10,11-dihydrospiro[dibenzo[a,d][7]annulene-5,4′-imidazol]-5′(1′H)-one]: the IC50 on human BACE1 is 0.18 µM.

Source of the values: US7582667B2, “Dihydrospiro[dibenzo[a,d][7]annulene-5,4′-imidazol] compounds for the inhibition of beta-secretase” (Wyeth, priority 2006, dated 2009).
